Earlier results in patent US12311060B2 (priority 2017, dated 2025).

Conditions: rodent models

For `C/C=C1\C2C=C(C)C[C@]1(N)c1ccc(=O)[nH]c1C2` (stereo in doubt) [huperzine A, (1R,9S,13E)-1-amino-13-ethylidene-11-methyl-6-azatricyclo[7.3.1.02,7]trideca-2(7),3,10-trien-5-one], which “efficacy as an anticonvulsant in words” value is on record?
The value was “very high efficacy”.
